A short description of data set [1]: Oral bioavailability in rhesus monkey at 2 mg/kg. The format is ADME, organism-based, Macaca mulatta. The following applies: in vivo.
Data set [2] concerns the target T1, Inward rectifier potassium channel 2 (Homo sapiens, UniProt P63252).
T1 sequence (P63252 whole entry): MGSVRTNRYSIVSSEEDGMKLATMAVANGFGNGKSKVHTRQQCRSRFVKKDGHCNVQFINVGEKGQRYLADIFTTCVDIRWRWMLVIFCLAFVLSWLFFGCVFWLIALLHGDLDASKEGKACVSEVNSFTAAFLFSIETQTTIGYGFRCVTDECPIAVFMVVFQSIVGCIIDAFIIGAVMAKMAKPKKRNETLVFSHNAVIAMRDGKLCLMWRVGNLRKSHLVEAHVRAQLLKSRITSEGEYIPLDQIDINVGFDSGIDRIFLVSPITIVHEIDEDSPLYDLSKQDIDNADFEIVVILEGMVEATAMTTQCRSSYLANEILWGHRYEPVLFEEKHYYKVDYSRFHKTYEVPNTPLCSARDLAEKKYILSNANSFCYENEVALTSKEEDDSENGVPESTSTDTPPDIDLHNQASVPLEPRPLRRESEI
As to the kind of experiment: Inhibition of Kir2.1 (unknown origin) upto 30 uM.

Data set [3] is described as follows: Volume of distribution at steady state in rhesus monkey at 1 mg/kg, iv or 2 mg/kg, po. The note with it: in vivo, read-out: Vdss. The format is ADME, organism-based, Macaca mulatta.

The record followed here is ChEMBL document CHEMBL4425169 (ACS Med Chem Lett, 2016).

The term bioavailability denotes the share of a dose that reaches the circulation, judged against a reference dose that is usually intravenous.

The structures appear in SMILES notation.

For the compound `Cc1c([C@@H](O)CN2CCN(C[C@H](O)c3ccc4c(c3C)COC4=O)CC2)ccc2c1COC2=O` [MK-7145], the bioavailability in data set [1] amounted to 25%. For the same compound, the “inhibition (INH)” value in data set [2] is reported as “Not Active”. In data set [3], the Vd stood at 6.7 L/kg.
